Test results taken from patent publication US9981964B2 (Agency for Science, Technology and Research, priority 2013, dated 2018).

Assays:
HEK293-STF3A cells = assay: STF3A assay (STF luciferase reporter in Wnt3A-expressing HEK293 cells); assay type: cell-based; conditions: Homo sapiens, 24 h, 1 day of treatment
Procedure, shortened: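 HEK293 cells carrying the STF reporter and expressing Wnt3A, seeded 2×10^4 per well overnight, then treated 1 day with compound at final 50 μM to 1.5 nM. Luciferase activity read by luminescence after Steady-Glo reagent, 10 min at room temperature.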

MMTV-Wnt1 tumor = assay type: in vivo, BALBc mice; conditions: daily treatment for 14 days, FIG. 2 and FIG. 3
Method: 8-10 weeks old Female BALBc mice were anesthetised with 150 mg/kg Ketamine +75 mg/kg Xylazine. Under aseptic conditions, skin near the 4th mammary fat pad was incised, Mammary fat pad was tweaked with forceps and tumor fragment ˜2 mm^3 was implanted. The incision was closed using a tissue adhesive. Animals were randomised into groups of eight and treated daily with the test compounds for 14 days. Tumors were measured in two dimensions using calipers, and volume was calculated using the formula: Tumor Volume (mm^3)=[…]. Maximum tumor volume limit was 2000 mm^3.

mammalian PORCN = assay: PORCN-null HT1080 cells transfected with mammalian PORCN, WNT3A and STF reporter, luciferase; assay type: cell-based; conditions: STF luciferase, FIG. 1
Method: PORCN-null HT1080 cells were transfected with mammalian or Xenopus PORCN expression plasmids, along with WNT3A, STF reporter and mCherry as transfection control. 6 hours after transfection, cells were treated with the compounds or DMSO as indicated, and the following day assayed for luciferase. Xenopus PORCN was resistant to the inhibitory effects of compounds.

Structure (SMILES)	IC50 (HEK293-STF3A cells) [nM]	tumor growth in treated mice (MMTV-Wnt1 tumor)	inhibition of the activity of mammalian porcupine (mammalian PORCN)
O=C(CN1CCCC2=C1C(=O)N(C1CC1)C2=O)Nc1ccc(-c2cncc(F)c2)nn1 [Compound 52, 2-(6-cyclopropyl-5,7-dioxo-2,3,4,5,6,7-hexahydro-1H-pyrrolo[3,4-b]pyridin-1-yl)-N-(6-(5-fluoropyridin-3-yl)pyridazin-3-yl)acetamide]	< 100	decreased tumor growth in all the treated mice	–
CN1C(=O)C2=C(C1=O)N(CC(=O)Nc1cnc(-c3cccnc3)cn1)CCC2 [Compound 21, 2-(6-methyl-5,7-dioxo-2,3,4,5,6,7-hexahydro-1H-pyrrolo[3,4-b]pyridin-1-yl)-N-(5-(pyridin-3-yl)pyrazin-2-yl)acetamide]	< 100	–	–
Cc1cc(-c2ccccc2)ccc1NC(=O)CN1CCCC2=C1C(=O)N(C)C2=O [Compound 78, 2-(6-methyl-5,7-dioxo-2,3,4,5,6,7-hexahydro-1H-pyrrolo[3,4-b]pyridin-1-yl)-N-(3-methyl-[1,1′-biphenyl]-4-yl)acetamide]	> 10000	–	–
O=C(CN1CCCC2=C1C(=O)N(C1CC1)C2=O)Nc1ccc(-c2cccnc2)cn1 [Compound 14, N-([3,3′-bipyridin]-6-yl)-2-(6-cyclopropyl-5,7-dioxo-2,3,4,5,6,7-hexahydro-1 H-pyrrolo[3,4-b]pyridin-1-yl)acetamide]	< 100	–	inhibit the activity of mammalian porcupine
O=C(CN1CCCC2=C1C(=O)N(C1CC1)C2=O)Nc1ccc(-c2cncnc2)nc1 [Compound 102, 2-(6-cyclopropyl-5,7-dioxo-2,3,4,5,6,7-hexahydro-1H-pyrrolo[3,4-b]pyridin-1-yl)-N-(6-(pyrimidin-5-yl)pyridin-3-yl)acetamide]	< 100	–	–
COc1cncc(-c2ccc(NC(=O)CN3CCCC4=C3C(=O)N(C3CC3)C4=O)cn2)c1 [Compound 144, 2-(6-cyclopropyl-5,7-dioxo-2,3,4,5,6,7-hexahydro-1H-pyrrolo[3,4-b]pyridin-1-yl)-N-(5′-methoxy-2,3′-bipyridin-5-yl)acetamide]	< 100	–	–
Cc1ccc(-c2ccc(NC(=O)CN3CCCC4=C3C(=O)N(C)C4=O)nn2)cc1 [Compound 30, 2-(6-methyl-5,7-dioxo-2,3,4,5,6,7-hexahydro-1H-pyrrolo[3,4-b]pyridin-1-yl)-N-(6-(p-tolyl)pyridazin-3-yl)acetamide]	< 100	–	–
O=C(CN1CCCC2=C1C(=O)N(C1CC1)C2=O)Nc1ccc(-c2cncc(C(F)F)c2)nn1 [Compound 61]	< 100	–	–
O=C(CN1CCCC2=C1C(=O)N(C1CC1)C2=O)Nc1cnc(-c2cccnc2)cn1 [Compound 26, 2-(6-cyclopropyl-5,7-dioxo-2,3,4,5,6,7-hexahydro-1H-pyrrolo[3,4-b]pyridin-1-yl)-N-(5-(pyridin-3-yl)pyrazin-2-yl)acetamide]	< 100	–	–
COc1cc(-c2ccccc2)ccc1NC(=O)CN1CCCC2=C1C(=O)N(C)C2=O [Compound 81, N-(3-methoxy-[1,1′-biphenyl]-4-yl)-2-(6-methyl-5,7-dioxo-2,3,4,5,6,7-hexahydro-1H-pyrrolo[3,4-b]pyridin-1-yl)acetamide]	> 10000	–	–
O=C(CN1CCCC2=C1C(=O)N(C1CC1)C2=O)Nc1ccc(-c2cncc(C(F)(F)F)c2)nn1 [Compound 54, 2-(6-cyclopropyl-5,7-dioxo-2,3,4,5,6,7-hexahydro-1H-pyrrolo[3,4-b]pyridin-1-yl)-N-(6-(5-(trifluoromethyl)pyridin-3-yl)pyridazin-3-yl)acetamide]	< 100	–	–
Cc1cc(-c2cccnc2)cnc1NC(=O)CN1CCCC2=C1C(=O)N(C)C2=O [Compound 113, 2-(6-methyl-5,7-dioxo-2,3,4,5,6,7-hexahydro-1H-pyrrolo[3,4-b]pyridin-1-yl)-N-(5-methyl-[3,3′-bipyridin]-6-yl)acetamide]	> 10000	–	–
CN1C(=O)C2=C(C1=O)N(CC(=O)Nc1ccc(-c3nccs3)cc1)CCC2 [Compound 2, 2-(6-methyl-5,7-dioxo-2,3,4,5,6,7-hexahydro-1H-pyrrolo[3,4-b]pyridin-1-yl)-N-(4-(thiazol-2-yl)phenyl)acetamide]	< 100	–	–
CN1C(=O)C2=C(C1=O)N(CC(=O)Nc1ccc(-c3cccnc3)nn1)CCC2 [Compound 25, 2-(6-methyl-5,7-dioxo-2,3,4,5,6,7-hexahydro-1H-pyrrolo[3,4-b]pyridin-1-yl)-N-(6-(pyridin-3-yl)pyridazin-3-yl)acetamide]	< 100	–	–
Cc1nc(NC(=O)CN2CCCC3=C2C(=O)N(C2CC2)C3=O)ccc1-c1cccnc1 [Compound 125, 2-(6-cyclopropyl-5,7-dioxo-2,3,4,5,6,7-hexahydro-1H-pyrrolo[3,4-b]pyridin-1-yl)-N-(2-methyl-[3,3′-bipyridin]-6-yl)acetamide]	< 1000	–	–
CN1C(=O)C2=C(C1=O)N(CC(=O)Nc1ccc(-c3cncnc3)cn1)CCC2 [Compound 101, 2-(6-methyl-5,7-dioxo-2,3,4,5,6,7-hexahydro-1H-pyrrolo[3,4-b]pyridin-1-yl)-N-(5-(pyrimidin-5-yl)pyridin-2-yl)acetamide]	< 100	–	–
COc1cncc(-c2ccc(NC(=O)CN3CCCC4=C3C(=O)N(C3CC3)C4=O)nc2)c1 [Compound 147, 2-(6-cyclopropyl-5,7-dioxo-2,3,4,5,6,7-hexahydro-1H-pyrrolo[3,4-b]pyridin-1-yl)-N-(5′-methoxy-3,3′-bipyridin-6-yl)acetamide]	< 100	–	–
